# Entries after “also recorded” stand apart in the source; their conditions may differ.
# Molecular target: T1, urease from Canavalia ensiformis (Canavalia ensiformis, UniProt P07374)
# T1 construct: purchased Sigma
# Assay: Urease inhibition assay (indophenol method, cell-free)
# Assay type: biochemical
# Conditions: not given
# Description: A reaction mixture consisting of 25 µL of enzyme solution (urease from Canavalia ensiformis, Sigma, 1U final concentration) and 5 µL of test compounds dissolved in water (10–300.0 µM final concentration) was preincubated at 37 °C for 60 min in 96-well plates. Then, 55 µL of phosphate-buffered solution with […] of urea was added to each well and incubated at 37 °C for 10 min. The urease inhibitory activity was estimated by determining ammonia production using the indophenol method. Briefly, 45 µL of phenol reagent (1% w/v phenol and 0.005% w/v sodium nitroprusside) and 70 µL of alkali reagent (0.5% w/v NaOH and 0.1% active chloride NaClO) were added to each well. The absorbance was measured after 50 min at 630 nm using a MultiskanFS microplate reader (Thermo Scientific Inc., Beverly, MA, USA). All reactions were performed in triplicate in a final volume of 200 µL. The pH was maintained at 7.3–7.5 in all assays. DMSO 5% was used as a positive control.
# T1 sequence (P07374 whole entry, looked up): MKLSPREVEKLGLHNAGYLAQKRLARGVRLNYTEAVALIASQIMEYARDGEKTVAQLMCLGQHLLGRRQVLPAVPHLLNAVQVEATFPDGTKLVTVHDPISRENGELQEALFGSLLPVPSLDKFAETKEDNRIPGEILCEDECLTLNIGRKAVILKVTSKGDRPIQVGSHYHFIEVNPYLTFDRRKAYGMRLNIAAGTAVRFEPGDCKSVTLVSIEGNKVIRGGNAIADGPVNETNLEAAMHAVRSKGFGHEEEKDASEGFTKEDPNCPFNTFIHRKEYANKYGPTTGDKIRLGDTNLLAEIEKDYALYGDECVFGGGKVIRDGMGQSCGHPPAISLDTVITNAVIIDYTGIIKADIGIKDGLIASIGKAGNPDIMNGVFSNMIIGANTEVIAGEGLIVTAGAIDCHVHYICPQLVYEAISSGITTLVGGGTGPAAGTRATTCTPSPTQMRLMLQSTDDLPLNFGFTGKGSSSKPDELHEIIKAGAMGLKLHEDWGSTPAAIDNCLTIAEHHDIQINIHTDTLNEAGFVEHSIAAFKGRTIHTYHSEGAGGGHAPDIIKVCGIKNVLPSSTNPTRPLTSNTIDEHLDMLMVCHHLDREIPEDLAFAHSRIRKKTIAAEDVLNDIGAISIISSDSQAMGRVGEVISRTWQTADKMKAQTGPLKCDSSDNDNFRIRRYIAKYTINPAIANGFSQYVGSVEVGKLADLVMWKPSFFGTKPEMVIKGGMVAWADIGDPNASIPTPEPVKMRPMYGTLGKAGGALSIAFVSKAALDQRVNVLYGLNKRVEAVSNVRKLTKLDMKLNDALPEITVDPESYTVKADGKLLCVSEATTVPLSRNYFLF
row,Compound,IC50 [µM]
1,"COC1=CC(=O)c2c(O)cc(O)cc2[C@@]1(C)O [Compound 1, sajaroketide A]",> 100
2,"Cc1cc(O)cc2oc3cc(O)cc(O)c3c(=O)c12 [Compound 5, norlichexanthone]",15.3 ± 2.1

# Same assay, conditions: at concentrations of up to 100 µM
row,Compound,effect on urease activity
1,"COC1=CC(=O)c2c(O)cc(O)cc2[C@@]1(C)O [Compound 1, sajaroketide A]",no effect; also recorded: very poor

# System: Candida albicans KMM 455
# Assay: Antimicrobial activity, inhibition of microbial growth (OD620)
# Assay type: cell-based
# Conditions: Candida albicans, KMM455; compounds tested at 100 µM; read-out: Inhibition of Microbial Growth, C. albicans
# Description: (§1) The yeast-like fungi of Candida albicans KMM 455 and bacterial strains Staphylococcus aureus ATCC 21027 and Escherichia coli VKPM (B-7935) (Collection of Marine Microorganisms PIBOC FEB RAS) were cultured on solid-medium Mueller Hinton broth with agar (16.0 g/L) in a Petri dish at 37 °C for 24 h.
# (§2) The assays were performed in 96-well microplates in appropriate Mueller Hinton broth. Each well contained 90 µL of bacterial or of a yeast-like fungi suspension (10^9 CFU/mL). Then, 10 µL of a compound diluted at concentrations ranging from 1.5 to 100.0 µM using a 2-fold dilution was added (DMSO concentration < 1%). Culture plates were incubated overnight at 37 °C, and the OD620 was measured using a Multiskan FS spectrophotometer (Thermo Scientific Inc., Beverly, MA, USA). The antibiotic gentamicin and antifungal agent nitrofungin were used as positive controls at 1 mg/mL; 1% DMSO in PBS served as a negative control.
row,Compound,inhibition at 100 µM [%]
1,"COC1=CC(=O)c2c(O)cc(O)cc2[C@@]1(C)O [Compound 1, sajaroketide A]",< 10
2,"Cc1cc(O)cc2oc3cc(O)cc(O)c3c(=O)c12 [Compound 5, norlichexanthone]",< 10

# System: Escherichia coli VKPM (B-7935)
# Assay: as above
# Assay type: cell-based
# Conditions: Escherichia coli, compounds tested at 100 µM; read-out: Inhibition of Microbial Growth, E. coli
# Description: as §1, §2
row,Compound,inhibition at 100 µM [%]
1,"COC1=CC(=O)c2c(O)cc(O)cc2[C@@]1(C)O [Compound 1, sajaroketide A]",25.4 ± 1
2,"Cc1cc(O)cc2oc3cc(O)cc(O)c3c(=O)c12 [Compound 5, norlichexanthone]",27.9 ± 3.3

# System: Staphylococcus aureus ATCC 21027
# Assay: as above
# Assay type: cell-based
# Conditions: Staphylococcus aureus, ATCC21027, compounds tested at 100 µM; read-out: Inhibition of Microbial Growth, S. aureus
# Description: as §1, §2
row,Compound,inhibition at 100 µM [%]
1,"COC1=CC(=O)c2c(O)cc(O)cc2[C@@]1(C)O [Compound 1, sajaroketide A]",35.1 ± 0.9
2,"Cc1cc(O)cc2oc3cc(O)cc(O)c3c(=O)c12 [Compound 5, norlichexanthone]",20.8 ± 6.5

# System: human hepatocarcinoma HepG2 cells
# Assay: Cell viability assay (MTT), cytotoxic activity
# Assay type: cell-based
# Conditions: 100 µM
# Description: (§3) The HepG2 and H9c2 cells were cultured in DMEM medium (Biolot, St. Petersburg, Russia) containing 10% fetal bovine serum (Biolot, St. Petersburg, Russia) and 1% penicillin/streptomycin (Biolot, St. Petersburg, Russia) at 37 °C in a humidified atmosphere with 5% (v/v) CO2.
# (§4) The HepG2 and H9c2 cells were seeded at concentrations of 5× 10^3 and 3×10^3 cell/well, respectively, and the experiments were started after 24 h. The compounds at concentrations up to 100 µM were added into the wells for 24 h, and the viability of the cells was measured by an MTT (3-(4,5-dimethylthiazol-2-yl)-2,5-diphenyltetrazolium bromide) assay, which was performed according to the manufacturer’s instructions (Sigma-Aldrich, Munich, Germany). All compounds were dissolved with DMSO so that the final concentration of DMSO in the cell culture was not more than 1%. Moreover, DMSO was used as a control. The absorbance of the resulting solution was measured at 570 nm with a microplate reader MultiscanFC (ThermoLabsystems Inc., Beverly, MA, USA). The results are presented as a percent of the control data and calculated IC50.
row,Compound,decrease of HepG2 cell viability [%]
1,"Cc1cc(O)cc2oc3cc(O)cc(O)c3c(=O)c12 [Compound 5, norlichexanthone]",47.4

# Same assay, conditions: 24 h, MTT; read-out: HepG2 IC50 (cytotoxic effect)
row,Compound,IC50 [µM]
1,"Cc1cc(O)cc2oc3cc(O)cc(O)c3c(=O)c12 [Compound 5, norlichexanthone]",> 100

# System: normal rat cardiomyocyte H9c2 cells
# Assay: Cell viability assay (MTT), cytotoxic activity
# Assay type: cell-based
# Conditions: 100 µM
# Description: as §3, §4
row,Compound,decrease of H9c2 cell viability [%]
1,"COC1=CC(=O)c2c(O)cc(O)cc2[C@@]1(C)O [Compound 1, sajaroketide A]",34.6
2,"Cc1cc(O)cc2oc3cc(O)cc(O)c3c(=O)c12 [Compound 5, norlichexanthone]",51.0

# Same assay, conditions: 24 h, MTT; read-out: H9c2 IC50 (cytotoxic effect)
row,Compound,IC50 [µM]
1,"Cc1cc(O)cc2oc3cc(O)cc(O)c3c(=O)c12 [Compound 5, norlichexanthone]",97.4 ± 2.2

# System: not listed separately
# Assay: Cell viability assay (MTT), cytotoxic activity
# Assay type: cell-based, human
# Conditions: human, HepG2 cells (human hepatocarcinoma), 24 h, MTT; read-out: HepG2 IC50 (cytotoxic effect)
# Description: as §3, §4
row,Compound,IC50 at 24 h [µM]
1,"COC1=CC(=O)c2c(O)cc(O)cc2[C@@]1(C)O [Compound 1, sajaroketide A]",> 100
2,"Cc1cc(O)cc2oc3cc(O)cc(O)c3c(=O)c12 [Compound 5, norlichexanthone]",~100

# Same assay, conditions: human, HepG2 hepatocarcinoma cells; 10 µM, 24 h, MTT, percent of control
row,Compound,"viability at 24 h, 10 µM [%]"
1,"COC1=CC(=O)c2c(O)cc(O)cc2[C@@]1(C)O [Compound 1, sajaroketide A]",108 ± 3.2
2,"Cc1cc(O)cc2oc3cc(O)cc(O)c3c(=O)c12 [Compound 5, norlichexanthone]",88 ± 4.9

# Same assay, conditions: human, HepG2 hepatocarcinoma cells; 100 µM, 24 h, MTT, percent of control
row,Compound,"viability at 24 h, 100 µM [%]"
1,"COC1=CC(=O)c2c(O)cc(O)cc2[C@@]1(C)O [Compound 1, sajaroketide A]",107 ± 3.9
2,"Cc1cc(O)cc2oc3cc(O)cc(O)c3c(=O)c12 [Compound 5, norlichexanthone]",52.6 ± 3

# Same assay, conditions: rat, H9c2 cardiomyocyte cells; 10 µM, 24 h, MTT, percent of control
row,Compound,"viability at 24 h, 10 µM [%]"
1,"COC1=CC(=O)c2c(O)cc(O)cc2[C@@]1(C)O [Compound 1, sajaroketide A]",83.6 ± 4.4
2,"Cc1cc(O)cc2oc3cc(O)cc(O)c3c(=O)c12 [Compound 5, norlichexanthone]",86.3 ± 6.3

# Same assay, conditions: rat, H9c2 cardiomyocyte cells; 100 µM, 24 h, MTT, percent of control
row,Compound,"viability at 24 h, 100 µM [%]"
1,"COC1=CC(=O)c2c(O)cc(O)cc2[C@@]1(C)O [Compound 1, sajaroketide A]",65.4 ± 4.8
2,"Cc1cc(O)cc2oc3cc(O)cc(O)c3c(=O)c12 [Compound 5, norlichexanthone]",49 ± 1.6

# Same assay, conditions: rat, H9c2 cells (normal rat cardiomyocytes), 24 h, MTT; read-out: H9c2 IC50 (cytotoxic effect)
row,Compound,IC50 at 24 h [µM]
1,"COC1=CC(=O)c2c(O)cc(O)cc2[C@@]1(C)O [Compound 1, sajaroketide A]",> 100
2,"Cc1cc(O)cc2oc3cc(O)cc(O)c3c(=O)c12 [Compound 5, norlichexanthone]",~100
